Laboratory results as given in US12691124B2, “Methods of controlling and improving brain health” (ICAHN SCHOOL OF MEDICINE AT MOUNT SINAI, priority 2019, dated 2026).

Columns and labels:
wild-type mice = assay: Classic fear conditioning in wild-type mice; assay type: in vivo, mouse; details: five weeks of daily IBET858 injections
Procedure: […] Albans, VT) as described previously (Schaefer et al., “Control of Cognition and Adaptive Behavior by the GLP/G9a Epigenetic Suppressor Complex,” Neuron 64:678-691 (2009), which is hereby incorporated by reference in its entirety). Briefly, a mouse was placed in the test chamber (house lights on) and allowed to explore freely for 2 min. A white noise (80 dB) was then presented for 30 s, co-terminating with a mild foot shock (2 s, 0.5 mA). Two minutes later the same sequence of auditory cue-shock pairing was repeated. The mouse was removed from the chamber 30 s later and returned to its home cage. Freezing behavior was continuously recorded during the time spent in the test chamber. […] Twenty-four hours later, the mouse was placed back into the test chamber for 5 min and freezing behavior was recorded (context test). Two hours later, the mouse was tested for freezing in response to the auditory cue. Environmental and contextual cues were changed for the auditory cue test. The auditory cue test was divided into two phases: 3 min in the absence of the auditory cue and 3 min of the auditory cue. The time freezing during each test was converted to a percentage of freezing value.
To understand if these cellular and molecular improvements impact behavior, memory was assessed using the classic fear conditioning paradigm.

BRD4 = molecular target: T1, BRD4 (Mus musculus, UniProt Q9ESU6); assay: ChIP sequencing of BRD4 chromatin occupancy in neurons; assay type: cell-based
T1 construct: Primary cortical neurons express BRD2/3/4, with BRD2 and BRD4 being the most abundant; endogenous in cells; host or cells: primary cortical neuronal cultures (mouse)
Procedure: Chromatin Immunoprecipitation with Sequencing. Primary cortical neuronal cultures were washed once with PBS then fixed for 10 minutes with a 1% formaldehyde solution in PBS with protease inhibitors (Sigma #P8340) at room temperature. Fixation was quenched adding glycine to a final concentration of 0.125M (5 minutes, room temperature). 10e6 fixed cells were resuspended in 1 ml of lysis buffer (50 mM Hepes KOH, pH7.5, 140 mM NaCl, 1 mM EDTA, 10% glycerol, 0.5% NP-40, 0.25% Triton X-100) and 10 ul of protease inhibitor cocktail (PIC). Samples were rotated for 10 minutes at 4 degrees then spun at 1350 g at 4 C for 10 minutes. Pellets were resuspended in 1 ml of lysis buffer 2 (10 mM Tris-HCl pH8.0, 200 mM NaCl, 1 mM EDTA, 0.5 mM EGTA) and 10 ul PIC.). 5e6 nuclei were sonicated in lysis buffer 3 (10 mM Tris-HCl pH8.0, 100 mM NaCl, 1 mM EDTA, 0.5 mM EGTA, 0.1% Na-Deoxicholate, 0.5% N-Lauroylsarcosine) at 4 degrees for 5 cycles of 30 seconds ON/30 seconds OFF using the Diagenode bioruptor. After, 30 ul of 10% Triton-X100 was added to each sample and then spun for 15 minutes at 20,000 g at 4 degrees. Sonication efficiency was checked by running the samples on a 2% agarose gel to confirm enrichment for fragments from 200-500 bps.
Streptavidin M-280 dynabeads were blocked with 0.5% BSA solution and coupled to 7 ug of antibody (Brd4 #Ab84778, Brd2 Bethyl #A302-583A, Pol2 Ser5 #Ab5408) for at least 8 hours at 4 degrees, rotating. Antibody-coupled beads were then added to sonicated chromatin (20e6 cells for Brd2/Brd4, 10e6 for Pol2) and incubated overnight at 4 degrees. After washing the IPs eight times with wash buffer (50 mM Hepes-KOH pH7.6, 100 mM LiCl, 1 mM EDTA, 1% NP-40, 0.7% Na-Deoxycholate) and once with TE buffer (10 mM Tris-HCl, 1 mM EDTA, 50 mM NaCl), Chromatin was eluted from magnetic beads in 200 ul elution buffer ([…] Tris-HCl pH8.0, 10 mM EDTA, 1% SDS) for 45 minutes at 65 degrees. Samples were de-crosslinked overnight at 65 degrees and proteins and RNA were removed by incubating with RNAse and proteinase k. Samples were purified using the Qiagen PCR purification kit according to the manufacturers protocol.
Samples were end-repaired using the End-IT DNA End-Repair Kit (#ER0720). After 45 minutes incubation, samples were purified using the Qiagen PCR Clean up kit as described above. Samples were adenylated using a reaction mix (200 uM dATP, 1× Klenow buffer NEB2, Klenow Fragment (3′ to 5′ exo-), NEB M0212L) and incubating at 37 degrees for 30 minutes. […] Raw sequencing reads were then aligned to the mouse mm9 genome using the default settings of Bowtie (v2.2.0)87. Only uniquely mapped reads were retained, and the alignments were subsequently filtered using the SAMtools package (v0.1.19)88 to remove duplicate reads. […]

R6/2 mice = assay: Survival of R6/2 Huntington's mouse model; details: 30 mg/kg i.p. daily from 6 weeks of age for 5 weeks

Q: `CC(=O)N1c2ccc(-c3ccc(CN4CCCCC4)cc3)cc2[C@H](Nc2ccccc2)CC1C` (stereo in doubt) [IBET858] was tested. Which contextual recall (wild-type mice) did it give?
A: significantly increased

Q: And the “genes that lose BRD4 at the transcriptional start site” value (BRD4; 6 h IBET858)?
A: 2226 genes

Q: And the “genes with gain of BRD4 at the transcriptional start site” value (BRD4; 6 h IBET858)?
A: 295 genes

Q: What about the “loci with reduced occupancy of BRD4” value (BRD4; DIV7, 6 h IBET858) of the same compound?
A: 4756 loci

Q: What about the “loci with increased occupancy of BRD4” value (BRD4; day 7, 6 h IBET858) of the same compound?
A: 1827 loci

Q: And the survival (R6/2 mice)?
A: rescued survival
